Data taken from patent US20190046467A1, “COMPOSITIONS AND METHODS FOR INHIBITING BIOFILM-FORMING BACTERIA” (priority 2015, published 2019).

How the values were obtained:
[1] = tested on: Pseudomonas aeruginosa PAO1 fabI mutant biofilms; test: MBEC biofilm killing assay (BacTiter-Glo), fabI mutants; type: cell-based; details: triclosan 100 μM alone; 6 hours treatment
Procedure: (§1) The MBEC™ Assay is a high throughput screening assay that allows testing of the efficacy of antimicrobials against biofilms. The MBEC™ Assay's Biofilm Inoculator (referred above as “the lid”) consists of a plastic lid with 96 pegs and a corresponding base with 96 individual wells. Biofilms are grown on the pegs under batch conditions (no flow of nutrients into or out of an individual well) with gentle mixing. The established biofilm is then transferred to a new 96 well plate for antimicrobial efficacy testing. The assay design allows for the evaluation of different of microorganisms, simultaneous testing of multiple biocides at multiple concentrations with replicate samples, making it an efficient screening tool. (Innovotech website http://www.innovotech.ca/products_mbec.php)) […]
(§2) Two milliliter overnight cultures of Pseudomonas aeruginosa fabI mutants were grown in MHII medium shaking at 220 rpm at 37° C. […] Cell culture was diluted to a 0.001 absorbance at 600 nm in 10% Mueller-Hinton II medium (MHII) and used to inoculate the bottom of MBEC™ assay plates (Innovotech, Edmonton, Canada). […] Following a 5 minute rinse in MHII, lids were exposed to BacTiter-Glo™ (Promega) and luminescence read in a microtiter plate reader (EnVision® Multilabel Plate Reader, Perkin Elmer, Waltham, USA). […]

[2] = tested on: 509=PAO1_Δ(mexAB-oprM)_Δ(mexCD-oprJ)_Δ(mexEF-oprN)_Δ(mexJK)_Δ(mexXY) mutant biofilms; test: MBEC biofilm killing assay (BacTiter-Glo), efflux pump deletion mutant 509; type: cell-based, Pseudomonas aeruginosa; details: triclosan 100 μM alone or with tobramycin 250 μg/mL; 6 hours treatment
Procedure: as §1
as §2, with “aeruginosa” for “aeruginosa fabI”

[3] = tested on: 509.5=PAO509 expressing triABC mutant biofilms; test: MBEC biofilm killing assay (BacTiter-Glo), mutant 509.5; type: cell-based, Pseudomonas aeruginosa; details: triclosan 100 μM alone or with tobramycin 250 μg/mL; 6 hours treatment
Procedure: as §1
as §2, with “aeruginosa” for “aeruginosa fabI”

Oc1cc(Cl)ccc1Oc1ccc(Cl)cc1Cl [triclosan, Triclosan]
susceptibility of fabI mutant biofilms [1]: triclosan resistance
susceptibility of 509 mutant biofilms [2]: susceptible
percentage of 509.5 mutant biofilms killed [3]: around 50%
